{
  "source": "PubChem BioAssay (NCI)",
  "test_in_all_cases": "growth of human tumour cells (NCI), 384-well format",
  "key": {"[1]": {"tested_on": "UO-31 renal"}, "[2]": {"tested_on": "MCF7 breast"}, "[3]": {"tested_on": "MDA-MB-435 melanoma"}, "[4]": {"tested_on": "EKVX NSCLC"}, "[5]": {"tested_on": "NCI-H226 lung"}, "[6]": {"tested_on": "CCRF-CEM leukemia"}, "[7]": {"tested_on": "K-562 leukemia"}, "[8]": {"tested_on": "DU-145 prostate"}, "[9]": {"tested_on": "HCT-15 colon"}, "[10]": {"tested_on": "SW-620 colon"}, "[11]": {"tested_on": "HCC-2998 colon"}, "[12]": {"tested_on": "RXF 393 renal"}, "[13]": {"tested_on": "786-0 renal"}},
  "note": "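At the GI50, growth is halved. TGI marks complete inhibition of growth.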",
  "data": [
    {"smiles": "Nc1nc2cc(-c3ccc4ncc(C(=O)N5CCOCC5)n4c3)ccc2o1", "values": [
      {"measurement": "GI50", "setting": "[1]", "value": 8.62, "unit": "µM"},
      {"measurement": "TGI", "setting": "[1]", "value": "> 100", "unit": "µM"},
      {"measurement": "GI50", "setting": "[2]", "value": 1.45, "unit": "µM"},
      {"measurement": "TGI", "setting": "[2]", "value": "> 100", "unit": "µM"},
      {"measurement": "GI50", "setting": "[3]", "value": 24.2, "unit": "µM"},
      {"measurement": "TGI", "setting": "[3]", "value": "> 100", "unit": "µM"},
      {"measurement": "GI50", "setting": "[4]", "value": 5.01, "unit": "µM"},
      {"measurement": "TGI", "setting": "[4]", "value": "> 100", "unit": "µM"},
      {"measurement": "GI50", "setting": "[5]", "value": "> 40.4", "unit": "µM"},
      {"measurement": "TGI", "setting": "[5]", "value": "> 100", "unit": "µM"},
      {"measurement": "GI50", "setting": "[6]", "value": 7.44, "unit": "µM"},
      {"measurement": "TGI", "setting": "[6]", "value": "> 100", "unit": "µM"},
      {"measurement": "GI50", "setting": "[7]", "value": "> 86", "unit": "µM"},
      {"measurement": "TGI", "setting": "[7]", "value": "> 100", "unit": "µM"},
      {"measurement": "GI50", "setting": "[8]", "value": 21.3, "unit": "µM"},
      {"measurement": "TGI", "setting": "[8]", "value": "> 100", "unit": "µM"},
      {"measurement": "GI50", "setting": "[9]", "value": 6.21, "unit": "µM"},
      {"measurement": "TGI", "setting": "[9]", "value": "> 100", "unit": "µM"},
      {"measurement": "GI50", "setting": "[10]", "value": 17.7, "unit": "µM"},
      {"measurement": "TGI", "setting": "[10]", "value": "> 91.4", "unit": "µM"},
      {"measurement": "GI50", "setting": "[11]", "value": 12.4, "unit": "µM"},
      {"measurement": "TGI", "setting": "[11]", "value": "> 100", "unit": "µM"},
      {"measurement": "GI50", "setting": "[12]", "value": 40.2, "unit": "µM"},
      {"measurement": "TGI", "setting": "[12]", "value": "> 100", "unit": "µM"},
      {"measurement": "GI50", "setting": "[13]", "value": "> 75.6", "unit": "µM"},
      {"measurement": "TGI", "setting": "[13]", "value": "> 100", "unit": "µM"}
    ]}
  ]
}
